# Data reported in ChEMBL document CHEMBL1201861, “Genomics of Drug Sensitity in Cancer screening data, Wellcome Trust Sanger Institute”.
# Where a name gives a salt, the structure may show the parent alone.
# Legend:
# Test in all cases: cells
# [1] = tested on: NCI-H2227; format: functional, cell-based, Homo sapiens;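 note: growth inhibition of the human cell line, read out with a cell viability assay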
# Description: SANGER: Inhibition of human NCI-H2227 cell growth in a cell viability assay.
# [2] = tested on: AGS; format: functional, cell-based, Homo sapiens;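 note: growth inhibition of AGS cells, determined with a cell viability assay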
# Description: SANGER: Inhibition of human AGS cell growth in a cell viability assay.
# [3] = tested on: Detroit 562; format: functional, cell-based, Homo sapiens;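 note: growth inhibition of human Detroit 562 cells, read out by a cell viability assay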
# Description: SANGER: Inhibition of human Detroit562 cell growth in a cell viability assay.
# [4] = tested on: OAW-42; format: functional, cell-based, Homo sapiens;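 note: growth inhibition of OAW-42 cells, read out with a cell viability assay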
# Description: SANGER: Inhibition of human OAW-42 cell growth in a cell viability assay.
# [5] = tested on: UACC-893; format: functional, cell-based, Homo sapiens
# Description: SANGER: Inhibition of human UACC-893 cell growth in a cell viability assay.
# [6] = tested on: UO-31; format: functional, cell-based, Homo sapiens;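 note: cell viability assay measuring inhibition of cell growth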
# Description: SANGER: Inhibition of human U031 cell growth in a cell viability assay.
# [7] = tested on: LU-165; format: functional, cell-based, Homo sapiens
# Description: SANGER: Inhibition of human LU-165 cell growth in a cell viability assay.
# [8] = tested on: Daoy; format: functional, cell-based, Homo sapiens;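 note: daoy cell growth inhibition, read out as cell viability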
# Description: SANGER: Inhibition of human Daoy cell growth in a cell viability assay.
# [9] = tested on: EGI-1; format: functional, cell-based, Homo sapiens;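 note: cell viability readout used to gauge growth inhibition of EGI-1 cells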
# Description: SANGER: Inhibition of human EGI-1 cell growth in a cell viability assay.
# [10] = tested on: RPMI-7951; format: functional, cell-based, Homo sapiens
# Description: SANGER: Inhibition of human RPMI-7951 cell growth in a cell viability assay.
# [11] = tested on: CA46; format: functional, cell-based, Homo sapiens;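 note: growth inhibition of human CA46 cells, read out by a cell viability assay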
# Description: SANGER: Inhibition of human CA46 cell growth in a cell viability assay.
# [12] = tested on: SK-MEL-30; format: functional, cell-based, Homo sapiens;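 note: growth inhibition of SK-MEL-30 cells, determined with a cell viability assay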
# Description: SANGER: Inhibition of human SK-MEL-30 cell growth in a cell viability assay.
# [13] = tested on: WSU-NHL; format: functional, cell-based, Homo sapiens;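 note: growth inhibition of human WSU-NHL cells, read out with a cell viability assay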
# Description: SANGER: Inhibition of human WSU-NHL cell growth in a cell viability assay.
# [14] = tested on: KYSE-150 cell line; format: functional, cell-based, Homo sapiens;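 note: growth inhibition of human KYSE-150 cells, read out with a cell viability assay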
# Description: SANGER: Inhibition of human KYSE-150 cell growth in a cell viability assay.
# [15] = tested on: KOSC-2; format: functional, cell-based, Homo sapiens;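 note: growth inhibition of KOSC-2 cells, read out by a cell viability assay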
# Description: SANGER: Inhibition of human KOSC-2 cell growth in a cell viability assay.
# [16] = tested on: NALM-6; format: functional, cell-based, Homo sapiens;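 note: growth inhibition of NALM-6 cells, read out with a cell viability assay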
# Description: SANGER: Inhibition of human NALM-6 cell growth in a cell viability assay.
# [17] = tested on: KYSE-70 cell line; format: functional, cell-based, Homo sapiens;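 note: cell viability assay read-out, with IC50 expressing suppression of KYSE-70 cell growth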
# Description: SANGER: Inhibition of human KYSE-70 cell growth in a cell viability assay.
# [18] = tested on: NCI-H1573; format: functional, cell-based, Homo sapiens;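 note: growth inhibition of NCI-H1573 cells, read out with a cell viability assay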
# Description: SANGER: Inhibition of human NCI-H1573 cell growth in a cell viability assay.
# [19] = tested on: HT55; format: functional, cell-based, Homo sapiens;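 note: cell viability readout measuring growth inhibition of human HT55 cells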
# Description: SANGER: Inhibition of human HT55 cell growth in a cell viability assay.
# [20] = tested on: MEL-HO; format: functional, cell-based, Homo sapiens
# Description: SANGER: Inhibition of human MEL-HO cell growth in a cell viability assay.
# [21] = tested on: PFSK-1; format: functional, cell-based, Homo sapiens;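 note: cell viability assay measuring how strongly compounds suppress growth of human PFSK-1 cells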
# Description: SANGER: Inhibition of human PFSK-1 cell growth in a cell viability assay.
# [22] = tested on: SCLC-21H; format: functional, cell-based, Homo sapiens;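 note: growth inhibition of cultured human SCLC-21H cells, read out with a cell viability assay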
# Description: SANGER: Inhibition of human SCLC-21H cell growth in a cell viability assay.
# [23] = tested on: SK-HEP1; format: functional, cell-based, Homo sapiens, SK-HEP-1;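 note: cell viability readout used to quantify reduction in proliferation of human SK-HEP-1 cells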
# Description: SANGER: Inhibition of human SK-HEP-1 cell growth in a cell viability assay.
# [24] = tested on: OVCAR-3; format: functional, cell-based, Homo sapiens;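 note: growth inhibition of human OVCAR-3 cells, determined by a cell viability assay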
# Description: SANGER: Inhibition of human OVCAR-3 cell growth in a cell viability assay.
# [25] = tested on: PC-14; format: functional, cell-based, Homo sapiens;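 note: cell viability assay measuring inhibition of PC-14 cell growth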
# Description: SANGER: Inhibition of human PC-14 cell growth in a cell viability assay.
# [26] = tested on: HT-1376; format: functional, cell-based, Homo sapiens
# Description: SANGER: Inhibition of human HT-1376 cell growth in a cell viability assay.
# [27] = tested on: NCI-H2081; format: functional, cell-based, Homo sapiens;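 note: growth inhibition of human NCI-H2081 cells, read out with a cell viability assay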
# Description: SANGER: Inhibition of human NCI-H2081 cell growth in a cell viability assay.
# [28] = tested on: HT1197; format: functional, cell-based, Homo sapiens, HT-1197
# Description: SANGER: Inhibition of human HT-1197 cell growth in a cell viability assay.
# [29] = tested on: SW1088; format: functional, cell-based, Homo sapiens;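 note: growth inhibition of human SW1088 cells, read out by a cell viability assay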
# Description: SANGER: Inhibition of human SW1088 cell growth in a cell viability assay.
# [30] = tested on: CAKI-1; format: functional, cell-based, Homo sapiens;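 note: growth inhibition of CAKI-1 cells, measured by a cell viability assay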
# Description: SANGER: Inhibition of human CAKI-1 cell growth in a cell viability assay.
# [31] = tested on: NCI-H1792; format: functional, cell-based, Homo sapiens;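 note: growth inhibition of human NCI-H1792 cells, read out as cell viability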
# Description: SANGER: Inhibition of human NCI-H1792 cell growth in a cell viability assay.
# [32] = tested on: TCC-SUP; format: functional, cell-based, Homo sapiens;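 note: growth inhibition of TCC-SUP cells, read out with a cell viability assay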
# Description: SANGER: Inhibition of human TCCSUP cell growth in a cell viability assay.
# [33] = tested on: OE33; format: functional, cell-based, Homo sapiens;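 note: growth inhibition of human OE33 cells, measured by a cell viability assay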
# Description: SANGER: Inhibition of human OE33 cell growth in a cell viability assay.
# [34] = tested on: CPC-N; format: functional, cell-based, Homo sapiens;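 note: growth inhibition of CPC-N cells, with a cell viability assay as the readout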
# Description: SANGER: Inhibition of human CPC-N cell growth in a cell viability assay.
# [35] = tested on: COLO-792; format: functional, cell-based, Homo sapiens
# Description: SANGER: Inhibition of human COLO-792 cell growth in a cell viability assay.
# [36] = tested on: BT-20; format: functional, cell-based, Homo sapiens;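 note: cell viability assay measuring suppression of growth in human BT-20 cells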
# Description: SANGER: Inhibition of human BT-20 cell growth in a cell viability assay.
# [37] = tested on: SW626; format: functional, cell-based, Homo sapiens;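 note: growth inhibition of SW626 cells, measured with a cell viability assay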
# Description: SANGER: Inhibition of human SW626 cell growth in a cell viability assay.
# [38] = tested on: ARH-77; format: functional, cell-based, Homo sapiens;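 note: growth inhibition of ARH-77 cells, read out by a cell viability assay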
# Description: SANGER: Inhibition of human ARH-77 cell growth in a cell viability assay.
# [39] = tested on: BPH-1; format: functional, cell-based, Homo sapiens;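 note: cell viability assay measuring growth inhibition of human BPH-1 cells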
# Description: SANGER: Inhibition of human BPH-1 cell growth in a cell viability assay.
# [40] = tested on: LC4-1; format: functional, cell-based, Homo sapiens;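 note: growth inhibition of LC4-1 cells, read out with a cell viability assay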
# Description: SANGER: Inhibition of human LC4-1 cell growth in a cell viability assay.
# [41] = tested on: M14; format: functional, cell-based, Homo sapiens;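 note: growth inhibition of M14 cells, read out with a cell viability assay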
# Description: SANGER: Inhibition of human M14 cell growth in a cell viability assay.
# [42] = tested on: OVCAR-8; format: functional, cell-based, Homo sapiens;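 note: growth inhibition of human OVCAR-8 cells, read out by a cell viability assay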
# Description: SANGER: Inhibition of human OVCAR-8 cell growth in a cell viability assay.
# [43] = tested on: LCLC-103H cell line; format: functional, cell-based, Homo sapiens
# Description: SANGER: Inhibition of human LCLC-103H cell growth in a cell viability assay.
# [44] = tested on: SCC-9; format: functional, cell-based, Homo sapiens;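 note: Read-out is a cell viability assay, with values giving inhibition of cell growth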
# Description: SANGER: Inhibition of human SCC-9 cell growth in a cell viability assay.
# [45] = tested on: KYSE-520 cell line; format: functional, cell-based, Homo sapiens;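 note: growth inhibition of human KYSE-520 cells, read out with a viability assay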
# Description: SANGER: Inhibition of human KYSE-520 cell growth in a cell viability assay.
# [46] = tested on: CAPAN-1; format: functional, cell-based, Homo sapiens;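 note: growth suppression of CAPAN-1 cells, read out by a cell viability assay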
# Description: SANGER: Inhibition of human CAPAN-1 cell growth in a cell viability assay.
# [47] = tested on: SK-LU-1; format: functional, cell-based, Homo sapiens;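 note: cell viability assay measuring growth inhibition of human SK-LU-1 cells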
# Description: SANGER: Inhibition of human SK-LU-1 cell growth in a cell viability assay.
# [48] = tested on: D-566MG; format: functional, cell-based, Homo sapiens; conditions: Homo sapiens, D-566MG
compound,measurement,setting,value
COC1=CC(c2cc3ccccc3[nH]2)=N/C1=C\c1[nH]c(C)cc1C [OBATOCLAX MESYLATE],IC50,"[1]; Homo sapiens, NCI-H2227",> 16 µM
same,IC50,"[2]; Homo sapiens, AGS",0.386 µM
same,IC50,"[3]; Homo sapiens, Detroit 562",0.489 µM
same,IC50,"[4]; Homo sapiens, OAW-42",0.215 µM
same,IC50,"[5]; Homo sapiens, UACC-893",2.86 µM
same,IC50,"[6]; Homo sapiens, UO-31",0.814 µM
same,IC50,"[7]; Homo sapiens, LU-165",5.99 µM
same,IC50,"[8]; Homo sapiens, Daoy",0.0562 µM
same,IC50,"[9]; Homo sapiens, EGI-1",1.58 µM
same,IC50,"[10]; Homo sapiens, RPMI-7951",0.51 µM
same,IC50,"[11]; Homo sapiens, CA46",0.0654 µM
same,IC50,"[12]; Homo sapiens, SK-MEL-30",< 0.0625 µM
same,IC50,"[13]; Homo sapiens, WSU-NHL",0.0755 µM
same,IC50,"[14]; Homo sapiens, KYSE-150",0.0401 µM
same,IC50,"[15]; Homo sapiens, KOSC-2",9.63 µM
same,IC50,"[16]; Homo sapiens, NALM-6",< 0.0625 µM
same,IC50,"[17]; Homo sapiens, KYSE-70",0.0695 µM
same,IC50,"[18]; Homo sapiens, NCI-H1573",3.2 µM
same,IC50,"[19]; Homo sapiens, HT55",2.79 µM
same,IC50,"[20]; Homo sapiens, MEL-HO",0.0235 µM
same,IC50,"[21]; Homo sapiens, PFSK-1",1.21 µM
same,IC50,"[22]; Homo sapiens, SCLC-21H",12.2 µM
same,IC50,"[23]; Homo sapiens, SK-HEP1",0.196 µM
same,IC50,"[24]; Homo sapiens, OVCAR-3",0.516 µM
same,IC50,"[25]; Homo sapiens, PC-14",0.0525 µM
same,IC50,"[26]; Homo sapiens, HT-1376",0.127 µM
same,IC50,"[27]; Homo sapiens, NCI-H2081",0.781 µM
same,IC50,"[28]; Homo sapiens, HT1197",0.395 µM
same,IC50,"[29]; Homo sapiens, SW1088",2.78 µM
same,IC50,"[30]; Homo sapiens, CAKI-1",1.72 µM
same,IC50,"[31]; Homo sapiens, NCI-H1792",0.377 µM
same,IC50,"[32]; Homo sapiens, TCC-SUP",1.25 µM
same,IC50,"[33]; Homo sapiens, OE33",0.251 µM
same,IC50,"[34]; Homo sapiens, CPC-N",1.98 µM
same,IC50,"[35]; Homo sapiens, COLO-792",0.132 µM
same,IC50,"[36]; Homo sapiens, BT-20",4.49 µM
same,IC50,"[37]; Homo sapiens, SW626",0.072 µM
same,IC50,"[38]; Homo sapiens, ARH-77",0.11 µM
same,IC50,"[39]; Homo sapiens, BPH-1",0.563 µM
same,IC50,"[40]; Homo sapiens, LC4-1",0.514 µM
same,IC50,"[41]; Homo sapiens, M14",0.46 µM
same,IC50,"[42]; Homo sapiens, OVCAR-8",0.0311 µM
same,IC50,"[43]; Homo sapiens, LCLC-103H",0.185 µM
same,IC50,"[44]; Homo sapiens, SCC-9",1.24 µM
same,IC50,"[45]; Homo sapiens, KYSE-520",0.483 µM
same,IC50,"[46]; Homo sapiens, CAPAN-1",0.523 µM
same,IC50,"[47]; Homo sapiens, SK-LU-1",0.134 µM
Cn1cnc2c(F)c(Nc3ccc(Br)cc3Cl)c(C(=O)NOCCO)cc21 [SELUMETINIB],IC50,"[2]; Homo sapiens, AGS",1.12 µM
same,IC50,"[3]; Homo sapiens, Detroit 562",> 4 µM
same,IC50,"[4]; Homo sapiens, OAW-42",> 4 µM
same,IC50,"[8]; Homo sapiens, Daoy",> 4 µM
same,IC50,"[9]; Homo sapiens, EGI-1",1.83 µM
same,IC50,"[10]; Homo sapiens, RPMI-7951",> 4 µM
same,IC50,"[12]; Homo sapiens, SK-MEL-30",0.782 µM
same,IC50,"[14]; Homo sapiens, KYSE-150",> 4 µM
same,IC50,"[15]; Homo sapiens, KOSC-2",> 4 µM
same,IC50,"[17]; Homo sapiens, KYSE-70",> 4 µM
same,IC50,"[18]; Homo sapiens, NCI-H1573",> 4 µM
same,IC50,"[19]; Homo sapiens, HT55",> 4 µM
same,IC50,"[20]; Homo sapiens, MEL-HO",0.139 µM
same,IC50,[48],> 4 µM
same,IC50,"[21]; Homo sapiens, PFSK-1",> 4 µM
same,IC50,"[23]; Homo sapiens, SK-HEP1",2.29 µM
same,IC50,"[24]; Homo sapiens, OVCAR-3",> 4 µM
same,IC50,"[25]; Homo sapiens, PC-14",> 4 µM
same,IC50,"[26]; Homo sapiens, HT-1376",> 4 µM
same,IC50,"[28]; Homo sapiens, HT1197",> 4 µM
same,IC50,"[29]; Homo sapiens, SW1088",> 4 µM
same,IC50,"[30]; Homo sapiens, CAKI-1",> 4 µM
same,IC50,"[31]; Homo sapiens, NCI-H1792",> 4 µM
same,IC50,"[32]; Homo sapiens, TCC-SUP",> 4 µM
same,IC50,"[33]; Homo sapiens, OE33",> 4 µM
same,IC50,"[35]; Homo sapiens, COLO-792",1.19 µM
same,IC50,"[36]; Homo sapiens, BT-20",> 4 µM
same,IC50,"[37]; Homo sapiens, SW626",> 4 µM
same,IC50,"[39]; Homo sapiens, BPH-1",0.182 µM
same,IC50,"[41]; Homo sapiens, M14",0.0369 µM
same,IC50,"[42]; Homo sapiens, OVCAR-8",> 4 µM
same,IC50,"[43]; Homo sapiens, LCLC-103H",> 4 µM
same,IC50,"[44]; Homo sapiens, SCC-9",> 4 µM
same,IC50,"[45]; Homo sapiens, KYSE-520",> 4 µM
same,IC50,"[46]; Homo sapiens, CAPAN-1",> 4 µM
same,IC50,"[47]; Homo sapiens, SK-LU-1",3.86 µM
BLEOMYCIN,IC50,[1]; nci-h2227,721 µM
same,IC50,[2]; ags,0.503 µM
same,IC50,[3]; detroit 562,11.9 µM
same,IC50,[4]; oaw-42,0.832 µM
same,IC50,[5]; uacc-893,130 µM
same,IC50,[6]; uo-31,0.934 µM
same,IC50,[7]; lu-165,41.8 µM
same,IC50,[8]; daoy,0.083 µM
same,IC50,[9]; egi-1,0.772 µM
same,IC50,[10]; rpmi-7951,1.24 µM
same,IC50,[11]; ca46,84.8 µM
same,IC50,[12]; sk-mel-30,0.377 µM
same,IC50,[13]; wsu-nhl,31.6 µM
same,IC50,[14]; kyse-150,0.00265 µM
same,IC50,[15]; kosc-2,319 µM
same,IC50,[16]; nalm-6,0.42 µM
same,IC50,[17]; kyse-70,1.38 µM
same,IC50,[18]; nci-h1573,268 µM
same,IC50,[19]; ht55,1040 µM
same,IC50,[20]; mel-ho,0.85 µM
same,IC50,[21]; pfsk-1,33.4 µM
same,IC50,[22]; sclc-21h,577 µM
same,IC50,[23]; sk-hep-1,0.415 µM
same,IC50,[24]; ovcar-3,123 µM
same,IC50,[25]; pc-14,0.183 µM
same,IC50,[26]; ht-1376,9.74 µM
same,IC50,[27]; nci-h2081,221 µM
same,IC50,[28]; ht-1197,2.74 µM
same,IC50,[29]; sw1088,818 µM
same,IC50,[30]; caki-1,0.62 µM
same,IC50,[31]; nci-h1792,2.57 µM
same,IC50,[32]; tcc-sup,15.9 µM
same,IC50,[33]; oe33,2.75 µM
same,IC50,[34]; cpc-n,52.5 µM
same,IC50,[35]; colo-792,26.4 µM
same,IC50,[36]; bt-20,2.77 µM
same,IC50,[37]; sw626,1.41 µM
same,IC50,[38]; arh-77,0.105 µM
same,IC50,[39]; bph-1,0.0591 µM
same,IC50,[40]; lc4-1,11.2 µM
same,IC50,[41]; m14,3.22 µM
same,IC50,[42]; ovcar-8,0.000476 µM
same,IC50,[43]; lclc-103h,0.144 µM
same,IC50,[44]; scc-9,403 µM
same,IC50,[45]; kyse-520,6.79 µM
same,IC50,[46]; capan-1,2.92 µM
same,IC50,[47]; sk-lu-1,0.999 µM
